Measurements: patent publication US20230416225A1, “DIAMINOPYRIMIDINE CARBOXAMIDE INHIBITORS OF HPK1” (MERCK SHARP & DOHME LLC, priority 2020, published 2023)
pIC50: −log10 of the molar value.

Target: T1, Human HPK1, catalytic domain (Homo sapiens, UniProt Q92918)
T1 construct: purchased Carna
T1 sequence (Q92918 1-346): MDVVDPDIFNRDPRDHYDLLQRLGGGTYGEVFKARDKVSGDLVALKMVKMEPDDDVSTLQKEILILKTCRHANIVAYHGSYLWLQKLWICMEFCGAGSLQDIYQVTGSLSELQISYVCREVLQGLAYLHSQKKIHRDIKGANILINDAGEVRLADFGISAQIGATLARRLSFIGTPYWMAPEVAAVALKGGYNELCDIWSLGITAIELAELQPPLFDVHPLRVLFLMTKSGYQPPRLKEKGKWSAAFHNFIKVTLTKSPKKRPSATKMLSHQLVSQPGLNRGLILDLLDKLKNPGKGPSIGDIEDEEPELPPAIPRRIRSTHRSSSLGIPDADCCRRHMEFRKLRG
Experiment: HPK1-SLP76 TR-FRET assay
Type: biochemical
Conditions: 75 pM HPK1, 10 uM ATP, 10 nM SLP76, 30 min compound pre-incubation

Row | Compound | pIC50
1 | COc1cc2c(cc1Nc1ncc(C(N)=O)c(Nc3cccc4c3CCN(S(C)(=O)=O)C4)n1)CN(C)CC2 [Example 7-31, 2-[(6-methoxy-2-methyl-1,2,3,4-tetrahydroisoquinolin-7-yl)amino]-4-{[2-(methylsulfonyl)-1,2,3,4-tetrahydroisoquinolin-5-yl]amino}pyrimidine-5-carboxamide] | 9.82
2 | COc1cc2c(cc1Nc1ncc(C(N)=O)c(Nc3ccccc3Br)n1)CN(C1CCOCC1)CC2 [Example 9-7, 4-[(2-bromophenyl)amino]-2-{[6-methoxy-2-(oxan-4-yl)-1,2,3,4-tetrahydroisoquinolin-7-yl]amino}pyrimidine-5-carboxamide] | 9.08
3 | COc1cc2c(cc1Nc1ncc(C(N)=O)c(Nc3ccccc3C(O)(C(F)(F)F)C(F)(F)F)n1)CN(C)CC2 [Example 7-97, 4-{[2-(1,1,1,3,3,3-hexafluoro-2-hydroxypropan-2-yl)phenyl]amino}-2-[(6-methoxy-2-methyl-1,2,3,4-tetrahydroisoquinolin-7-yl)amino]pyrimidine-5-carboxamide] | 9.64
4 | COc1cc2c(cc1Nc1ncc(C(N)=O)c(Nc3cc(C)nn3CCO)n1)CN(C)CC2 [Example 7-90, 4-((1-(2-hydroxyethyl)-3-methyl-1H-pyrazol-5-yl)amino)-2-((6-methoxy-2-methyl-1,2,3,4-tetrahydroisoquinolin-7-yl)amino)pyrimidine-5-carboxamide] | 8.84
5 | CCc1ccccc1Nc1nc(Nc2cc3c(cc2OC)CCN(C)C3)ncc1C(N)=O [Example 4-27] | 10.10
6 | COc1cc2c(cc1Nc1ncc(C(N)=O)c(Nc3cn(C)nc3C(F)(F)F)n1)CN(C)CC2 [Example 7-86, 2-((6-methoxy-2-methyl-1,2,3,4-tetrahydroisoquinolin-7-yl)amino)-4-((1-methyl-3-(trifluoromethyl)-1H-pyrazol-4-yl)amino)pyrimidine-5-carboxamide] | 7.93
7 | COc1cc2c(cc1Nc1ncc(C(N)=O)c(Nc3cccc4c3CCN(CC(F)(F)F)C4)n1)CN(C)CC2 [Example 7-29, 2-[(6-methoxy-2-methyl-1,2,3,4-tetrahydroisoquinolin-7-yl)amino]-4-{[2-(2,2,2-trifluoroethyl)-1,2,3,4-tetrahydroisoquinolin-5-yl]amino}pyrimidine-5-carboxamide] | 9.46
8 | COc1cc2c(cc1Nc1ncc(C(N)=O)c(Nc3ccccc3Br)n1)CN(CC(F)F)CC2 [Example 10-3, 4-((2-bromophenyl)amino)-2-((2-(2,2-difluoroethyl)-6-methoxy-1,2,3,4-tetrahydroisoquinolin-7-yl)amino)pyrimidine-5-carboxamide] | 7.54
9 | C=CCCCN1CCc2cc(OC)c(Nc3ncc(C(N)=O)c(Nc4c(F)cc(Br)cc4F)n3)cc2C1 [Example 10-4, 4-(4-bromo-2,6-difluoroanilino)-2-{[6-methoxy-2-(pent-4-en-1-yl)-1,2,3,4-tetrahydroisoquinolin-7-yl]amino}pyrimidine-5-carboxamide] | 7.17
10 | Cn1cc(Nc2ncc(C(N)=O)c(Nc3cccc4c3CCNC4=O)n2)cn1 [Example 7-44, 2-[(1-methyl-1H-pyrazol-4-yl)amino]-4-[(1-oxo-1,2,3,4-tetrahydroisoquinolin-5-yl)amino]pyrimidine-5-carboxamide] | 8.33
11 | CNCc1ccccc1Nc1nc(Nc2cc3c(cc2OC)CCN(C)C3)ncc1C(N)=O [Example 2-4, 2-[(6-methoxy-2-methyl-1,2,3,4-tetrahydroisoquinolin~7-yl)amino]-4-({2-[(methylamino)methyl]-phenyl}amino)pyrimidine-5-carboxamide] | 9.20
12 | COc1cc2c(cc1Nc1ncc(C(N)=O)c(Nc3cccc(CO)c3)n1)CN(C)CC2 [Example 1-1, 4-((3-(Hydroxymethyl)phenyl)amino)-2-((6-methoxy-2-methyl-1,2,3,4-tetrahydroisoquinolin-7-yl)amino)pyrimidine-5-carboxamide] | 9.46

Second part, the compound after the results:

Row | pIC50 | Compound
13 | 6.43 | Cn1cc([C@@H]2C[C@H]2C(=O)Nc2ncc(C(N)=O)c(Nc3ccccc3Br)n2)cn1 (racemic) [Example 22-1, 4-((2-bromophenyl)amino)-2-((trans)-2-(1-methyl-1H-pyrazol-4-yl)cyclopropane-1-carboxamido)pyrimidine-5-carboxamide]
14 | 7.15 | Cc1cccc(Nc2ncc(C(N)=O)c(Nc3cccc4c3CCNC4=O)n2)c1C [Example 25-11, 2-[(2,3-dimethylphenyl)amino]-4-[(1-oxo-1,2,3,4-tetrahydroisoquinolin-5-yl)amino]pyrimidine-5-carboxamide]
15 | 8.56 | N#CC1(c2cccc(Nc3ncc(C(N)=O)c(Nc4cccc5c4CCNC5=O)n3)c2)CC1 [Example 25-4, 2-{[3-(1-cyanocyclopropyl)phenyl]amino}-4-[(1-oxo-1,2,3,4-tetrahydroisoquinolin-5-yl)amino]pyrimidine-5-carboxamide]
16 | 8.50 | COc1cc2c(cc1Nc1ncc(C(N)=O)c(NCc3ccccc3O)n1)CN(C)CC2 [Example 26-57, 4-{[(2-hydroxyphenyl)methyl]amino}-2-[(6-methoxy-2-methyl-1,2,3,4-tetrahydroisoquinolin-7-yl)amino]pyrimidine-5-carboxamide]
17 | 6.87 | NC(=O)c1cnc(Nc2cccc3ccccc23)nc1Nc1cccc2c1CCNC2=O [Example 25-14, 2-[(naphthalen-1-yl)amino]-4-[(1-oxo-1,2,3,4-tetrahydroisoquinolin-5-yl)amino]pyrimidine-5-carboxamide]
18 | 7.36 | COc1cc2c(cc1Nc1ncc(C(N)=O)c(Nc3ccccc3Br)n1)CN(S(C)(=O)=O)CC2 [Example 10-5, 4-[(2-bromophenyl)amino]-2-{[6-methoxy-2-(methylsulfonyl)-1,2,3,4-tetrahydroisoquinolin-7-yl]amino}pyrimidine-5-carboxamide]
19 | 9.42 | COc1cc2c(cc1Nc1ncc(C(N)=O)c(N[C@H]3CCc4ccccc43)n1)CN(C)CC2 [Example 26-37, 4-{[(1S)-2,3-dihydro-1H-inden-1-yl]amino}-2-[(6-methoxy-2-methyl-1,2,3,4-tetrahydroisoquinolin-7-yl)amino]pyrimidine-5-carboxamide]
20 | 6.11 | COc1cc2c(cc1Nc1ncc(C(N)=O)c(NCc3cnc4ccccn34)n1)CN(C)CC2 [Example 26-56, 4-{[(imidazo[1,2-a]pyridin-3-yl)methyl]amino}-2-[(6-methoxy-2-methyl-1,2,3,4-tetrahydroisoquinolin-7-yl)amino]pyrimidine-5-carboxamide]
21 | 7.35 | NC(=O)c1cnc(Nc2ccc(OC(F)F)c(Cl)c2)nc1Nc1cccc2c1CCNC2=O [Example 25-21, 2-{[3-chloro-4-(difluoromethoxy)phenyl]amino}-4-[(1-oxo-1,2,3,4-tetrahydroisoquinolin-5-yl)amino]pyrimidine-5-carboxamide]
22 | 6.24 | NC(=O)c1cnc(Nc2ccc(F)c(Cl)c2)nc1Nc1cccc2c1CCNC2=O [Example 25-6, 2-[(3-chloro-4-fluorophenyl)amino]-4-[(1-oxo-1,2,3,4-tetrahydroisoquinolin-5-yl)amino]pyrimidine-S-carboxamide]
23 | 8.91 | NC(=O)c1cnc(Nc2cccc(F)c2)nc1Nc1cccc2c1CCNC2=O [Example 25-10, 2-[(3-fluorophenyl)amino]-4-[(1-oxo-1,2,3,4-tetrahydroisoquinolin-5-yl)amino]pyrimidine-5-carboxamide]
24 | 7.38 | COc1ncccc1Nc1ncc(C(N)=O)c(Nc2cccc3c2CCNC3=O)n1 [Example 25-45, 2-[(2-methoxypyridin-3-yl)amino]-4-[(1-oxo-1,2,3,4-tetrahydroisoquinolin-5-yl)amino]pyrimidine-S-carboxamide]
25 | 8.84 | COc1cc2c(cc1Nc1ncc(C(N)=O)c(N[C@H]3CC[C@H](C)CC3)n1)CN(C)CC2 [Example 26-29, 2-[(6-methoxy-2-methyl-1,2,3,4-tetrahydroisoquinolin-7-yl)amino]-4-[(trans-4-methylcyclohexyl)amino]pyrimidine-5-carboxamide]
26 | 9.64 | NC(=O)c1cnc(Nc2ccc3c(c2)CNCC3)nc1NC1CCc2cc(F)c(F)cc21 (stereo not drawn) [Example 26-53, 4-[(5,6-difluoro-2,3-dihydro-1H-inden-1-yl)amino]-2-[(1,2,3,4-tetrahydroisoquinolin-7-yl)amino]pyrimidine-5-carboxamide]
27 | 6.73 | COc1cc2c(cc1Nc1ncc(C(N)=O)c(Nc3ccccc3Br)n1)CN(C(=O)C1CCC1(F)F)CC2 (stereo not drawn) [Example 12-10, 4-[(2-bromophenyl)amino]-2-{[2-(2,2-difluorocyclobutane-1-carbonyl)-6-methoxy-1,2,3,4-tetrahydroisoquinolin-7-yl]amino}pyrimidine-5-carboxamide]
28 | 8.43 | CCOc1ccccc1CNc1nc(Nc2cc3c(cc2OC)CCN(C)C3)ncc1C(N)=O [Example 26-23, 4-{[(2-ethoxyphenyl)methyl]amino}-2-[(6-methoxy-2-methyl-1,2,3,4-tetrahydroisoquinolin-7-yl)amino]pyrimidine-5-carboxamide]
29 | 8.96 | COc1cc2c(cc1Nc1ncc(C(N)=O)c(Nc3ccccc3C3CCOCC3)n1)CN(C)CC2 [Example 13-13, 2-[(6-methoxy-2-methyl-1,2,3,4-tetrahydroisoquinolin-7-yl)amino]-4-{[2-(oxan-4-yl)phenyl]amino}pyrimidine-5-carboxamide]
30 | 6.71 | COc1cc2c(cc1Nc1ncc(C(N)=O)c(N[C@H]3c4ccccc4C[C@@H]3O)n1)CN(C)CC2 [Example 26-66, 4-{[(1S,2S)-2-hydroxy-2,3-dihydro-1H-inden-1-yl]amino}-2-[(6-methoxy-2-methyl-1,2,3,4-tetrahydroisoquinolin-7-yl)amino]pyrimidine-5-carboxamide]
